From patent EP0452101B1, “Spiro bridged and unbridged heterocyclic compounds” (ISRAEL INSTITUTE FOR BIOLOGICAL RESEARCH, priority 1990, dated 1991)
Like-named read-outs stand apart in the source and are kept apart here.

What was measured:
m3 receptors = m3 receptors (Rattus norvegicus, UniProt P08483); assay: PI hydrolysis in CHO cells transfected with m3 receptors; assay type: cell-based; conditions: for effective concentration which induces the effect: CHO m3, PI hydrolysis, footnote b; for PI (phosphoinositides hydrolysis): CHO m3, tested at 1mM
Protocol: (§1) The new compounds AF150, AF151, AF150(S) and AF125 were assayed for their ability to stimulate PI in CHO cells transfected with m1 and m3 receptors, respectively (Buck and Fraser, loc cit), and in cultured human neuroblastoma cells, line SK-N-SH, which express mainly the m3 subtype, but not the m1 subtype (Pinkas-Kramarski et al, Neurosci. Lett. 188: 335-340, 1990; Luthin et al Mol. Pharmacol. 34: 327-333, 1988). These compounds were also assayed on cultured PC12 cells which express mainly m4 subtype receptors and are coupled to inhibition of AC activity (Pinkas-Kramarski et al, loc cit).
(§2) Stimulation of PI breakdown was assayed using the method described by Stein et al (EMBO J. 7: 3031-3035, 1988), and modulation of AC activity was assayed by the method of Stein et al, loc cit and Pinkas-Kramarski et al (FEBS Lett., 239: 174-178, 1988). […]

[1] = molecular target: T1, m4 subtype receptors (PC12 cells) (Rattus norvegicus, UniProt P08485); assay: Inhibition of adenylate cyclase activity in PC12 cells; assay type: cell-based; conditions: for EC50: PC12 m4, AC activity; for AC (adenylate cyclase activity): PC12 m4, tested at 1mM
T1 construct: endogenous in cells; host or cells: PC12 cells
T1 sequence (P08485 1-478): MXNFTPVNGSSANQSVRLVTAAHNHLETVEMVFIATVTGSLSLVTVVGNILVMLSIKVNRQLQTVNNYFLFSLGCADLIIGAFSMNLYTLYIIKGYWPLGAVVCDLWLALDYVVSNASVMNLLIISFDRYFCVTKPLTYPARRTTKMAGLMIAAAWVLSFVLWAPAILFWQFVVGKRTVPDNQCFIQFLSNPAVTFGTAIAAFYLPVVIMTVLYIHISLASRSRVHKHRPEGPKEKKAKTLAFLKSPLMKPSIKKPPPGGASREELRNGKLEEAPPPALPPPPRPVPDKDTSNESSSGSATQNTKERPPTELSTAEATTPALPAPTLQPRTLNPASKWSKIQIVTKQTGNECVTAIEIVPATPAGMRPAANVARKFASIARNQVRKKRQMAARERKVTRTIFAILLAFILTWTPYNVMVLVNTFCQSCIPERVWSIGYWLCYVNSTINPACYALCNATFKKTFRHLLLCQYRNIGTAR
Protocol: as §1, §2

M1 muscarinic receptor = molecular target: T2, M1 muscarinic receptor (Rattus norvegicus, UniProt P08482); assay: Displacement of 3H-PZ from rat cerebral cortex, 10 mM phosphate buffer; assay type: binding; design: from tissue; host or cells: rat cerebral cortex homogenates
T2 sequence (P08482 1-460): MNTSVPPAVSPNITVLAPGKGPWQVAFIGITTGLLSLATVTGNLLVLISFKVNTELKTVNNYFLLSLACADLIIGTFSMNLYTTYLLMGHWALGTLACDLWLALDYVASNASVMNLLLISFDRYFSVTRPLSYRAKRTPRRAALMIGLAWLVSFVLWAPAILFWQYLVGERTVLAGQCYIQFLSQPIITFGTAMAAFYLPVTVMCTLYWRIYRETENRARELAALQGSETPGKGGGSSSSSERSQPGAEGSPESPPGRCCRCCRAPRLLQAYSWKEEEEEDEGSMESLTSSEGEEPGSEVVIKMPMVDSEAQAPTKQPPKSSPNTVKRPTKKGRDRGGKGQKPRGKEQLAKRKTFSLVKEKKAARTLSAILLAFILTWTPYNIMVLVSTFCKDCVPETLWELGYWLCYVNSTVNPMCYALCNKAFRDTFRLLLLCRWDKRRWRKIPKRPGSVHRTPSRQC

[2] = system: AF64A-injected mature rats; assay: 8-arm radial maze (RAM) in AF64A-treated rats, Part A; assay type: in vivo; conditions: AF125 0.5 mg./kg. i.p.
Protocol: This animal model mimics the cholinergic hypofunction and cognitive dysfunction in SDAT (Fisher and Hanin, loc cit; Fisher et al, Neurosci. Lett. 102: 325-331, 1989); the method described in the latter publication was used here.
Forty eight mature male (11-12 months) rats which were used in this study. They were injected icv with AF64A (3 nmole/2 µl./side) 8 months earlier, at the age of three months. One week before the behavioral testing, rats were transferred to individual cages and were food restricted until reaching 90% of their free feeding weight (the rats had free access to water). The room was illuminated 12 hrs a day (6:00 to 18:00) and behavioral testing sessions were carried out during the mornings. After reaching 90% of free feeding weight, rats received about 4 food pellets per day (Altromin, 15 g.) in order to further reduce the rats' weights. Two days before behavioral testing the rats were fed with precision pellets (Bioserv Inc.) which were later used for reinforcement in the maze.
Behavioral tests were conducted in an elevated (70cm) 8-arms radial maze, made of PVC. […]
Due to the size of the batch (48 rats) the experiment was conducted in two phases. […] The correct choices, number of errors and total time scores were analyzed by a 2-way ANOVA (2x2) (Injection-AF64A/saline and Treatment-AF125 0.5 mg./kg./saline).

[3] = cortex, Table 4, read-out: 3H-PZ-Binding KH (a)

m3 receptors, sequence (P08483 whole entry): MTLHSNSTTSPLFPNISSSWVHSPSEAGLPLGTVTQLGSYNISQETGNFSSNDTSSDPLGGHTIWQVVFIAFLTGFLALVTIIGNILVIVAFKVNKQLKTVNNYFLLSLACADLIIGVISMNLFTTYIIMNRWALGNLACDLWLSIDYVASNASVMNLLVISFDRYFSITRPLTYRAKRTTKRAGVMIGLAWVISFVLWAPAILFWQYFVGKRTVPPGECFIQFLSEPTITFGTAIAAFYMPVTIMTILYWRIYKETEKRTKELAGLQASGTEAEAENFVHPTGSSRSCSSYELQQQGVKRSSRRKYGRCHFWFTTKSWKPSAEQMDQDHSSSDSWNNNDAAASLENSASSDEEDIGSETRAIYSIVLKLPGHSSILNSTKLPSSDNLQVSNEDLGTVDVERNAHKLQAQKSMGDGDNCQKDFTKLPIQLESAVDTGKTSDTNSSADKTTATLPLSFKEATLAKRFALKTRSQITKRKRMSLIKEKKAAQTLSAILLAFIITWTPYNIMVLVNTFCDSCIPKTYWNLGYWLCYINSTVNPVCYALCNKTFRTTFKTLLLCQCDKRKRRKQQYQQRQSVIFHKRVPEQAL

Row | SMILES | effective concentration which induces the effect (m3 receptors) | PI (phosphoinositides hydrolysis) (m3 receptors) | EC50 [1] [nM] | AC (adenylate cyclase activity) [1] | RATIOS c:a (M1 muscarinic receptor; KH cerebellum (3H-QNB) : KH cortex (3H-PZ)) | RATIOS b:a (M1 muscarinic receptor; KL : KH cortex (3H-PZ)) | RATIOS d:b (M1 muscarinic receptor; KL cerebellum (3H-QNB) : KL cortex (3H-PZ)) | % H (M1 muscarinic receptor; cortex, Table 4) [%] | %L (M1 muscarinic receptor; cortex, Table 4) [%] | Ki (M1 muscarinic receptor; [3]) [nM] | Ki (M1 muscarinic receptor; cortex, Table 4, read-out: 3H-PZ-Binding KL (b)) [nM] | Side-effects [2] | correct choices out of the first eight entries ([2]; AF64A-injected rats)
1 | CC1=NCC2(CCN(C)CC2)O1 [AF150, 2-Methyl-spiro(1,3-oxazoline-5,4')-1'-methylpiperidine] | 10^b µM | + | 1000 | +++ | 225 | 900 | 4.4 | 24 | 76 | 20 | 18000 |  | 
2 | CC1=NCC2(CN3CCC2CC3)O1 (racemic) [AF125, 2-Methyl-spiro(1,3 oxazoline-5,3')quinuclidine] |  |  |  |  |  |  |  |  |  | 4000 |  | Only two saline-injected rats treated with AF125 had diarrhoea | 6.53±0.36
3 | CC1=NC2(CCN(C)CC2)CO1 [AF151, 1-methylpiperidine-4-spiro-4'-(2'-methyl-1',3'-oxazoline)] | 10^b µM | + | 1000 | +++ |  |  |  |  |  |  |  |  | 
